Molecular target: human TREK-1 (Homo sapiens (Human), UniProt O95069)
Assay: TREK-1 Thallium (Tl+) flux assay
Type: cell-based
Settings: CHO-K1 cells stably expressing human TREK-1

human TREK-1, sequence (O95069 whole entry): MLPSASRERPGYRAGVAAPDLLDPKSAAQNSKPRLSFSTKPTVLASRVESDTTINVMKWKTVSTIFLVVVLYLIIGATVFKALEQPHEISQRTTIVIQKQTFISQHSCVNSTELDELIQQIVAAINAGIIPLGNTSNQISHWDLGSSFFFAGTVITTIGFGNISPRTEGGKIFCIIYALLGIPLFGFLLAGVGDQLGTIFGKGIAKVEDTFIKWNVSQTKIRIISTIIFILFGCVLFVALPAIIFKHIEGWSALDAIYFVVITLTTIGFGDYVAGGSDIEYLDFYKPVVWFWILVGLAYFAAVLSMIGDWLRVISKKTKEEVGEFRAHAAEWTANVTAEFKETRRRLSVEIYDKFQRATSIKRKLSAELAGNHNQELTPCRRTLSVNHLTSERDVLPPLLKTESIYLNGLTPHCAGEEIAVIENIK

| SMILES | IC50 |
| --- | --- |
| Cc1cc(OCc2ccccc2)ccc1NC(=O)c1ccc(N)cc1Cl [Compound 89, 4-amino-N-(4-(benzyloxy)-2-methylphenyl)-2-chlorobenzamide] | 7670 nM |
| Cc1cc(C#Cc2ccccc2)cnc1NC(=O)c1cc(-c2c(C)cnn2C)ccc1Cl [Compound 76, 2-chloro-5-(2,4-dimethylpyrazol-3-yl)-N-[3-methyl-5-(2-phenylethynyl)-2-pyridyl]benzamide] | 450 nM |
| CC(C)(C)OC(=O)Nc1ccc(Cl)c(C(=O)Nc2c(F)cc(C#Cc3ccccc3)nc2F)c1 [Compound 40, tert-butyl N-[4-chloro-3-[[2,4-difluoro-6-(2-phenylethynyl)-3-pyridyl]carbamoyl]phenyl]carbamate] | 470 nM |
| Cc1cc(OCc2ccccc2)ccc1NC(=O)c1cc(NC(=O)OC(C)(C)C)ccc1Cl [Compound 25, tert-butyl (3-((4-(benzyloxy)-2-methylphenyl)carbamoyl)-4-chlorophenyl)carbamate] | 460 nM |
| Cc1cc(C#Cc2ccc(F)cc2)cnc1NC(=O)c1cc(NC(=O)C2CCO2)ccc1Cl (stereo not shown) [Compound 12, N-[4-chloro-3-[[5-[2-(4-fluorophenyl)ethynyl]-3-methyl-2-pyridyl]carbamoyl]phenyl]oxetane-2-carboxamide] | 310 nM |
| Cc1cc(C#Cc2ccccc2)cnc1NC(=O)c1cc(-c2noc(C3CCOC3)n2)ccc1Cl (stereo not shown) [Compound 19, 2-chloro-N-[3-methyl-5-(2-phenylethynyl)-2-pyridyl]-5-(5-tetrahydrofuran-3-yl-1,2,4-oxadiazol-3-yl)benzamide] | 50 nM |
| Cc1cc(C#Cc2ccccc2)cnc1NC(=O)c1cc(-c2cnn(C3COC3)c2)ccc1Cl [Compound 58, 2-chloro-N-[3-methyl-5-(2-phenylethynyl)-2-pyridyl]-5-[1-(oxetan-3-yl)pyrazol-4-yl]benzamide] | 130 nM |
| Cc1cc(C#Cc2ccccc2)cnc1NC(=O)c1cc(NC(=O)OC(C)(C)C)cc(F)c1Cl [Compound 35, tert-butyl N-[4-chloro-3-fluoro-5-[[3-methyl-5-(2-phenylethynyl)-2-pyridyl]carbamoyl]phenyl]carbamate] | 400 nM |
| Cc1cc(C#Cc2ccccc2)nc(C)c1NC(=O)c1cc(NC(=O)OC(C)(C)C)ccc1Cl [Compound 48, tert-butyl N-[4-chloro-3-[[2,4-dimethyl-6-(2-phenylethynyl)-3-pyridyl]carbamoyl]phenyl]carbamate] | 950 nM |
| Cc1cc(C#Cc2ccccc2)cnc1NC(=O)c1cc(-c2nnco2)ccc1Cl [Compound 77, 2-chloro-N-[3-methyl-5-(2-phenylethynyl)-2-pyridyl]-5-(1,3,4-oxadiazol-2-yl)benzamide] | 470 nM |
| Cc1cc(C#Cc2ccccc2)cnc1N1Cc2ccc(NC(=O)OC(C)(C)C)cc2C1=O [Compound 44, tert-butyl N-[2-[3-methyl-5-(2-phenylethynyl)-2-pyridyl]-3-oxo-isoindolin-5-yl]carbamate] | 580 nM |
| O=C(Nc1ncc(C#Cc2ccccc2)cc1F)c1cc(NC(=O)C2COCCO2)ccc1Cl (stereo not shown) [Compound 10, N-[4-chloro-3-[[3-fluoro-5-(2-phenylethynyl)-2-pyridyl]carbamoyl]phenyl]-1,4-dioxane-2-carboxamide] | 200 nM |
| Cc1cc(C#Cc2ccccc2)cnc1N1Cc2ccc(OCC3CCOCC3)cc2C1=O [Compound 82, 2-(3-methyl-5-(phenylethynyl)pyridin-2-yl)-6-((tetrahydro-2H-pyran-4-yl)methoxy)isoindolin-1-one] | 390 nM |
| Cc1cc(C#Cc2ccccc2)cnc1NC(=O)c1cc(C(=O)N2CC(F)C2)ccc1Cl [Compound 73, 2-chloro-5-(3-fluoroazetidine-1-carbonyl)-N-[3-methyl-5-(2-phenylethynyl)-2-pyridyl]benzamide] | 390 nM |
| Cc1cc(-c2cnn(-c3ccccc3)c2)cnc1NC(=O)c1cc(NC(=O)OC(C)(C)C)ccc1Cl [Compound 93, tert-butyl N-[4-chloro-3-[[3-methyl-5-(1-phenylpyrazol-4-yl)-2-pyridyl]carbamoyl]phenyl]carbamate] | 190 nM |
| CC(=O)Nc1ccc(Cl)c(C(=O)Nc2ccc(OCc3ccccc3)cc2C)c1 [Compound 91] | 1030 nM |
| Cc1cc(C#Cc2ccccc2)cnc1NC(=O)c1cc(NC(=O)OC(C)(C)C)ccc1Cl [Compound 28, tert-butyl N-[4-chloro-3-[[3-methyl-5-(2-phenylethynyl)-2-pyridyl]carbamoyl]phenyl]carbamate] | 140 nM |
| Cc1cc(C#Cc2ccccc2)cnc1NC(=O)c1cc(OC[C@@H]2COCCO2)ccc1Cl [Compound 23, 2-chloro-5-[[(2S)-1,4-dioxan-2-yl]methoxy]-N-[3-methyl-5-(2-phenylethynyl)-2-pyridyl]benzamide] | 210 nM |
| Cc1cc(C#Cc2ccccc2)cnc1NC(=O)c1cc(C(=O)N2CC(C)(C)C2)ccc1Cl [Compound 60, 2-chloro-5-(3,3-dimethylazetidine-1-carbonyl)-N-[3-methyl-5-(2-phenylethynyl)-2-pyridyl]benzamide] | 140 nM |

| SMILES | IC50 |
| --- | --- |
| Cc1cc(C#Cc2ccccc2)cnc1NC(=O)c1cc(-c2cnn(C)c2)ccc1Cl [Compound 78, 2-chloro-N-[3-methyl-5-(2-phenylethynyl)-2-pyridyl]-5-(1-methylpyrazol-4-yl)benzamide] | 470 nM |
| Cc1cc(C#Cc2cccc(F)c2)cnc1NC(=O)c1cc(C(=O)N2CC(C)(O)C2)ccc1Cl [Compound 18, 2-chloro-N-[5-[2-(3-fluorophenyl)ethynyl]-3-methyl-2-pyridyl]-5-(3-hydroxy-3-methyl-azetidine-1-carbonyl)benzamide] | 240 nM |
| CC1CC1C(=O)Nc1ccc(Cl)c(C(=O)Nc2ncc(C#Cc3ccccc3)cc2F)c1 (stereo not shown) [Compound 3, 2-chloro-N-[3-fluoro-5-(2-phenylethynyl)-2-pyridyl]-5-[(2-methylcyclopropanecarbonyl)amino]benzamide] | 70 nM |
| O=C(Nc1ncc(C#Cc2ccccc2)cc1F)c1cc(-c2cnn(C3CCOCC3)c2)ccc1Cl [Compound 55, 2-chloro-N-[3-fluoro-5-(2-phenylethynyl)-2-pyridyl]-5-(1-tetrahydropyran-4ylpyrazol-4-yl)benzamide] | 100 nM |
| Cc1noc(-c2ccc(Cl)c(C(=O)Nc3ncc(C#Cc4ccccc4)cc3C)c2)n1 [Compound 63, 2-chloro-5-(3-methyl-1,2,4-oxadiazol-5-yl)-N-[3-methyl-5-(2-phenylethynyl)-2-pyridyl]benzamide] | 200 nM |
| O=C(Nc1ncc(C#Cc2ccccc2)cc1F)c1cc(-c2cnn(C3COC3)c2)ccc1Cl [Compound 56, 2-chloro-N-[3-fluoro-5-(2-phenylethynyl)-2-pyridyl]-5-[1-(oxetan-3-yl)pyrazol-4-yl]benzamide] | 110 nM |
| Cc1cc(COc2ccccc2)ccc1NC(=O)c1cc(NC(=O)OC(C)(C)C)ccc1Cl [Compound 26, tert-butyl (4-chloro-3-((2-methyl-4-(phenoxymethyl)phenyl)carbamoyl)phenyl)carbamate] | 670 nM |
| Cc1cc(C#Cc2ccccc2)cnc1NC(=O)c1cc(NC(=O)OC(C)(C)C)cnc1Cl [Compound 52, tert-butyl N-[6-chloro-5-[[3-methyl-5-(2-phenylethynyl)-2-pyridyl]carbamoyl]-3-pyridyl]carbamate] | 2170 nM |
| Cc1nn(C)cc1-c1ccc(Cl)c(C(=O)Nc2ncc(C#Cc3ccccc3)cc2F)c1 [Compound 68, 2-chloro-5-(1,3-dimethylpyrazol-4-yl)-N-[3-fluoro-5-(2-phenylethynyl)-2-pyridyl]benzamide] | 220 nM |
| C[C@H]1C[C@@H]1C(=O)Nc1ccc(Cl)c(C(=O)Nc2ncc(C#Cc3cccc(F)c3)cc2F)c1 [Compound 4, 2-chloro-N-[3-fluoro-5-[2-(3-fluorophenyl)ethynyl]-2-pyridyl]-5-[[(1S,2S)-2-methylcyclopropanecarbonyl]amino]benzamide] | 130 nM |
| Cc1cc(C#Cc2ccccc2)cnc1NC(=O)c1cc(OCCN2CCOCC2)ccc1Cl [Compound 84, 2-chloro-N-[3-methyl-5-(2-phenylethynyl)-2-pyridyl]-5-(2-morpholinoethoxy)benzamide] | 420 nM |
| Cc1cc(C#Cc2ccccc2)cnc1NC(=O)c1cc(-c2cnn(C3CCOC3)c2)ccc1Cl (stereo not shown) [Compound 66, 2-chloro-N-(3-methyl-5-(phenylethynyl)pyridin-2-yl)-5-(1-(tetrahydrofuran-3-yl)-1H-pyrazol-4-yl)benzamide] | 220 nM |
| CC(C)(C)OC(=O)Nc1ccc(Cl)c(C(=O)Nc2ncc(-c3cnn(-c4ccc(F)cc4)c3)cc2F)c1 [Compound 92, tert-butyl (4-chloro-3-((3-fluoro-5-(1-(4-fluorophenyl)-1H-pyrazol-4 yl)pyridin-2-yl)carbamoyl)phenyl)carbamate] | 130 nM |
| Cc1cc(C#Cc2ccccc2)cnc1NC(=O)c1cc(NC(=O)C2CC(C)(O)C2)ccc1Cl (stereo not shown) [Compound 32, 2-chloro-5-[(3-hydroxy-3-methyl-cyclobutanecarbonyl)amino]-N-[3-methyl-5-(2-phenylethynyl)-2-pyridyl]benzamide] | 280 nM |
| O=C(Nc1ncc(C#Cc2ccccc2)cc1F)c1cc(NC(=O)C2(F)CC2)ccc1Cl [Compound 6, 2-chloro-5-[(1-fluorocyclopropanecarbonyl)amino]-N-[3-fluoro-5-(2-phenylethynyl)-2-pyridyl]benzamide] | 170 nM |
| Cc1ncc(-c2ccc(Cl)c(C(=O)Nc3ncc(C#Cc4ccccc4)cc3C)c2)s1 [Compound 75, 2-chloro-N-[3-methyl-5-(2-phenylethynyl)-2-pyridyl]-5-(2-methylthiazol-5-yl)benzamide] | 450 nM |
| Cc1cc(C#Cc2ccccc2)cnc1NC(=O)c1cc(OCC2CCOCC2)ccc1Cl [Compound 20, 2-chloro-N-[3-methyl-5-(2-phenylethynyl)-2-pyridyl]-5-(tetrahydropyran-4-ylmethoxy)benzamide] | 90 nM |
| Cc1cc(C#Cc2ccccc2)cnc1NC(=O)c1cc(NC(=O)[C@H]2C[C@@H]2C)ccc1Cl [Compound 27, 2-chloro-5-[[(1S,2S)-2-methylcyclopropanecarbonyl]amino]-N-[3-methyl-5-(2-phenylethynyl)-2-pyridyl]benzamide] | 100 nM |

Reference: patent US20240190824A1, “INHIBITORS OF TREK (TWIK RELATED K+ CHANNELS) CHANNEL FUNCTION” (ONO PHARMACEUTICAL CO., LTD., priority 2019, published 2024)
